Measured values: patent US11434242B2, “Dopamine-b-hydroxylase inhibitors” (BIAL-PORTELA & Cª, S.A., priority 2017, dated 2022)
Marks after values point to notes of the source that are not given here.

Biological target: T1, Dopamine beta hydroxylase (Homo sapiens, UniProt P09172)
T1 construct: 125 μl of plasma; tissue Instituto Português do Sangue Transplantação; host or cells: human plasma from healthy donors
T1 sequence (P09172 40-617 limits assumed): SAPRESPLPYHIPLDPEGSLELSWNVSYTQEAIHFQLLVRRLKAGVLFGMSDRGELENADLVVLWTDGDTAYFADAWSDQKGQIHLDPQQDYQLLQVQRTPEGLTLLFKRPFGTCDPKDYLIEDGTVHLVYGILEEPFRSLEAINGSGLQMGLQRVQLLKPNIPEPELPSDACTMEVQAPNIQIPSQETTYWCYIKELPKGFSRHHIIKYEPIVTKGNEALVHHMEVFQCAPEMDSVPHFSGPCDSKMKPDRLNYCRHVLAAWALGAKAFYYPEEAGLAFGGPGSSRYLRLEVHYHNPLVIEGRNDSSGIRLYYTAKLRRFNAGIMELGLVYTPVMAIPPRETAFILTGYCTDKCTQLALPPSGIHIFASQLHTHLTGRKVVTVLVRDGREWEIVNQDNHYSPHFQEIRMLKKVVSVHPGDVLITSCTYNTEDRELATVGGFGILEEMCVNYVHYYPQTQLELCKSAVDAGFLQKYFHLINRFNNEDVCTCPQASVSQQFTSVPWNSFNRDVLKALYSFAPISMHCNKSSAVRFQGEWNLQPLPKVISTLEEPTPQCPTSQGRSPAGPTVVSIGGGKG
Test: Dopamine beta hydroxylase activity in human plasma
Type: biochemical
Details: for Plasma (1 μM), activity in % of control: inhibitor 1 μM
Method in brief: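 Octopamine production from tyramine over 45 min at 37° C, measured photometrically at 330 nm after SCX extraction and periodate oxidation against an octopamine standard curve, indicates plasma DβH activity. Compounds tested at final 10, 100 and 1000 nM in human plasma, pH 5.0 cofactor buffer, 10 min preincubation; results as % of control.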

Compound | Plasma (0.01 μM), activity in % of control (inhibitor 0.01 μM) | Plasma (0.1 μM), activity in % of control (inhibitor 0.1 μM) | Plasma (1 μM), activity in % of control | Plasma (0.01 μM), activity in % of control, re-test (asterisked) (inhibitor 0.01 μM, re-tested under the same experimental conditions, asterisked data believed to be correct) | Plasma (0.1 μM), activity in % of control, re-test (asterisked) (inhibitor 0.1 μM, re-tested under the same experimental conditions, asterisked data believed to be correct)
CN(CCO)CCc1[nH]c(=S)n2c1C[C@H](c1c(F)ccc(Br)c1F)C2 [Example 183, (R)-6-(3-bromo-2,6-difluorophenyl)-1-(2-((2-hydroxyethyl)(methyl)amino)ethyl)-2,5,6,7-tetrahydro-3H-pyrrolo[1,2-c]imidazole-3-thione] | 92.2 % of control | 79.8 % of control |  |  | 
CN1CCN(C(=O)Cc2c3n(c(=S)n2C)C[C@@]2(c4cc(Cl)ccc4F)C[C@@H]32)CC1 [Example 326, 2-((5aS,6aR)-5a-(5-chloro-2-fluorophenyl)-2-methyl-3-thioxo-2,3,5,5a,6,6a-hexahydrocyclopropa[3,4]pyrrolo[1,2-c]imidazol-1-yl)-1-(4-methylpiperazin-1-yl)ethan-1-one] | 96.6 % of control | 59.5 % of control |  |  | 
O=C(CCc1[nH]c(=S)n2c1C[C@H](c1c(F)c(F)cc(F)c1F)C2)NCC1CC1 [Example 203, (R)—N-(cyclopropylmethyl)-3-(6-(2,3,5,6-tetrafluorophenyl)-3-thioxo-2,5,6,7-tetrahydro-3H-pyrrolo[1,2-c]imidazol-1-yl)propanamide] | 95.8 % of control | 75.8 % of control |  |  | 
O=C(Cc1[nH]c(=S)n2c1C[C@H](c1c(F)cccc1F)C2)NC1CCCC1 [Example 76, (R)—N-cyclopentyl-2-(6-(2,6-difluorophenyl)-3-thioxo-2,5,6,7-tetrahydro-3H-pyrrolo[1,2-c]imidazol-1-yl)acetamide] |  | 65.8 % of control | 13.1 % of control |  | 
COCCNC(=O)Cc1[nH]c(=S)n2c1C[C@@H](c1c(F)ccc(Cl)c1F)C2 [Example 107, (S)-2-(6-(3-chloro-2,6-difluorophenyl)-3-thioxo-2,5,6,7-tetrahydro-3H-pyrrolo[1,2-c]imidazol-1-yl)-N-(2-methoxyethyl)acetamide] |  | 40.1 % of control | 6.3 % of control |  | 
CN(C(=O)Cc1[nH]c(=S)n2c1C[C@@H](c1c(F)ccc(Br)c1F)C2)C1CCOC1 (stereo partly drawn) [Example 167, 2-((S)-6-(3-bromo-2,6-difluorophenyl)-3-thioxo-2,5,6,7-tetrahydro-3H-pyrrolo[1,2-c]imidazol-1-yl)-N-methyl-N-(tetrahydrofuran-3-yl)acetamide] | 50.8 % of control | 3.2 % of control |  | 78.0* % of control | 28.0* % of control
CS(=O)(=O)C1CCN(C(=O)Cc2[nH]c(=S)n3c2C[C@H](c2c(F)ccc(Br)c2F)C3)CC1 [Example 126, (R)-2-(6-(3-bromo-2,6-difluorophenyl)-3-thioxo-2,5,6,7-tetrahydro-3H-pyrrolo[1,2-c]imidazol-1-yl)-1-(4-(methylsulfonyl)piperidin-1-yl)ethan-1-one] | 100.2 % of control | 40.2 % of control |  |  | 

Next, values leading:

Plasma (0.01 μM), activity in % of control (inhibitor 0.01 μM) | Plasma (0.1 μM), activity in % of control (inhibitor 0.1 μM) | Plasma (1 μM), activity in % of control | Plasma (0.01 μM), activity in % of control, re-test (asterisked) (inhibitor 0.01 μM, re-tested under the same experimental conditions, asterisked data believed to be correct) | Plasma (0.1 μM), activity in % of control, re-test (asterisked) (inhibitor 0.1 μM, re-tested under the same experimental conditions, asterisked data believed to be correct) | Compound
57.0 % of control | 10.9 % of control |  |  |  | Cn1c(CC(=O)NCC(F)(F)F)c2n(c1=S)C[C@@]1(c3cc(Cl)ccc3F)C[C@@H]21 [Example 300, 2-((5aS,6aR)-5a-(5-chloro-2-fluorophenyl)-2-methyl-3-thioxo-2,3,5,5a,6,6a-hexahydrocyclopropa[3,4]pyrrolo[1,2-c]imidazol-1-yl)-N-(2,2,2-trifluoroethyl)acetamide]
106.2 % of control | 53.4 % of control |  |  |  | Cn1c(CC(=O)N[C@@H]2CCCNC2=O)c2n(c1=S)C[C@@H](c1c(F)ccc(F)c1F)C2 [Example 354, 2-((R)-2-methyl-3-thioxo-6-(2,3,6-trifluorophenyl)-2,5,6,7-tetrahydro-3H-pyrrolo[1,2-c]imidazol-1-yl)-N—((R)-2-oxopiperidin-3-yl)acetamide]
65.6 % of control | 13.5 % of control |  |  |  | Cn1c(CC(=O)N[C@H]2CCOC2)c2n(c1=S)C[C@H](c1c(F)ccc(Br)c1F)C2 [Example 459, 2-((S)-6-(3-bromo-2,6-difluorophenyl)-2-methyl-3-thioxo-2,5,6,7-tetrahydro-3H-pyrrolo[1,2-c]imidazol-1-yl)-N—((S)-tetrahydrofuran-3-yl)acetamide]
39.8 % of control | 5.5 % of control |  |  |  | CN(C(=O)Cc1c2n(c(=S)n1C)C[C@H](c1c(F)ccc(Br)c1F)C2)[C@@H]1CCOC1 [Example 451, 2-((S)-6-(3-bromo-2,6-difluorophenyl)-2-methyl-3-thioxo-2,5,6,7-tetrahydro-3H-pyrrolo[1,2-c]imidazol-1-yl)-N-methyl-N—((R)-tetrahydrofuran-3-yl)acetamide]
63.4 % of control | 24.5 % of control |  |  |  | Cn1c(CC(=O)NCC#N)c2n(c1=S)C[C@H](c1c(F)ccc(Br)c1F)C2 [Example 253, (S)-2-(6-(3-bromo-2,6-difluorophenyl)-2-methyl-3-thioxo-2,5,6,7-tetrahydro-3H-pyrrolo[1,2-c]imidazol-1-yl)-N-(cyanomethyl)acetamide]
86.2 % of control | 38.8 % of control |  |  |  | Cn1c(CC(=O)N2CCCC2)c2n(c1=S)C[C@@]1(c3cc(Cl)ccc3F)C[C@@H]21 [Example 309, 2-((5aS,6aR)-5a-(5-chloro-2-fluorophenyl)-2-methyl-3-thioxo-2,3,5,5a,6,6a-hexahydrocyclopropa[3,4]pyrrolo[1,2-c]imidazol-1-yl)-1-(pyrrolidin-1-yl)ethan-1-one]
83.5 % of control | 28.2 % of control |  |  |  | Cn1c(CC(=O)NCC(F)(F)F)c2n(c1=S)C[C@@]1(c3cc(Br)ccc3F)C[C@@H]21 [Example 298, 2-((5aS,6aR)-5a-(5-bromo-2-fluorophenyl)-2-methyl-3-thioxo-2,3,5,5a,6,6a-hexahydrocyclopropa[3,4]pyrrolo[1,2-c]imidazol-1-yl)-N-(2,2,2-trifluoroethyl)acetamide]
67.2 % of control | 11.8 % of control |  |  |  | CN(C(=O)Cc1c2n(c(=S)n1C)C[C@@]1(c3cc(Br)ccc3F)C[C@@H]21)C1CCOCC1 [Example 439, 2-((5aS,6aR)-5a-(5-bromo-2-fluorophenyl)-2-methyl-3-thioxo-2,3,5,5a,6,6a-hexahydrocyclopropa[3,4]pyrrolo[1,2-c]imidazol-1-yl)-N-methyl-N-(tetrahydro-2H-pyran-4-yl)acetamide]
77.4 % of control | 50.2 % of control |  |  |  | Cl.Cn1c(CCN[C@@H]2CCCOC2)c2n(c1=S)C[C@@]1(c3cc(Br)ccc3F)C[C@@H]21 [Example 331, (5aS,6aR)-5a-(5-bromo-2-fluorophenyl)-2-methyl-1-(2-(((R)-tetrahydro-2H-pyran-3-yl)amino)ethyl)-5,5a,6,6a-tetrahydrocyclopropa[3,4]pyrrolo[1,2-c]imidazole-3(2H)-thione Hydrochloride]
93.4 % of control | 32.0 % of control |  |  |  | CN(C(=O)Cc1c2n(c(=S)n1C)C[C@@H](c1c(F)ccc(F)c1F)C2)C1CCOCC1 [Example 372, (R)—N-methyl-2-(2-methyl-3-thioxo-6-(2,3,6-trifluorophenyl)-2,5,6,7-tetrahydro-3H-pyrrolo[1,2-c]imidazol-1-yl)-N-(tetrahydro-2H-pyran-4-yl)acetamide]
71.7 % of control | 32.5 % of control |  |  |  | Cl.Cn1c(CCNC2CCCC2)c2n(c1=S)C[C@@]1(c3cc(Br)ccc3F)C[C@@H]21 [Example 330, (5aS,6aR)-5a-(5-bromo-2-fluorophenyl)-1-(2-(cyclopentylamino)ethyl)-2-methyl-5,5a,6,6a-tetrahydrocyclopropa[3,4]pyrrolo[1,2-c]imidazole-3(2H)-thione Hydrochloride]
